Article PMC11091220, “Metabolism-driven in vitro/in vivo disconnect of an oral ERɑ VHL-PROTAC” (Communications Biology, 2024)
Where two headings read alike, the source gives them in different places.

Key:
ERα [1] = biological target: T1, ERα (Homo sapiens, UniProt P03372); experiment: Western blot analysis of ERα in MCF7 cells (dose response, MG132, VHL ligand and cpd 8 competition); format: cell-based
T1 construct: endogenous in cells; host or cells: MCF7 (also MCF7 engineered to express Cas9)
T1 sequence (P03372 1-595): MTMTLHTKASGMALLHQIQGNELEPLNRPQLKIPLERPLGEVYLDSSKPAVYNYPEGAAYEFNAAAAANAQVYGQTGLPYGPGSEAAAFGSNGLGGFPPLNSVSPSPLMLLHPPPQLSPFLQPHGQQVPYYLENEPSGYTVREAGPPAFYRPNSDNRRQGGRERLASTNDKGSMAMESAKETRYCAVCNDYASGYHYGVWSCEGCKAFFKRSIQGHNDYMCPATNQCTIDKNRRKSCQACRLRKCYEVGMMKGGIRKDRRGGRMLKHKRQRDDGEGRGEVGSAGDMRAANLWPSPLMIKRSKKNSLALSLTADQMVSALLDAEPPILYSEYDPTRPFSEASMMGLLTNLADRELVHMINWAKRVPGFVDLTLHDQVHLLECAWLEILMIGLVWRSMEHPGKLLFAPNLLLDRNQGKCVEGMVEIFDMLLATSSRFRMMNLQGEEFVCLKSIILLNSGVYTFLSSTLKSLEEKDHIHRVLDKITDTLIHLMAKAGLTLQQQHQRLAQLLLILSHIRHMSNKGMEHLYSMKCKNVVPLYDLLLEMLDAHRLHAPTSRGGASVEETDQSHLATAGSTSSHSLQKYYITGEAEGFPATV
Method: Fig. 2 AZ’6421 degrades ERα through a PROTAC mechanism of action. a Immunoblots for ERα and vinculin loading control. MCF7 cells were pre-treated with 10 µM MG132 or DMSO control for 1 h before being exposed to DMSO, AZ’6421, or fulvestrant, at the concentrations indicated, for a further 7 h. A representative immunoblot from two biological replicates is shown. b As in a but cells were pre-treated with 10 µM VHL ligand (Ac-(S,R,S)-AHPC) prior to addition of DMSO, AZ’6421 or fulvestrant. c MCF7 cells expressing BFP-Cas9 were reverse transfected with the crRNA:tracrRNA pool targeting VHL for 72 h prior to treatment with increasing concentrations of AZ’6421 for a further 24 h. Cells were then fixed, stained, and imaged to assess ERα and Cas9 expression. ERα levels in Cas9 positive cells were normalised to unedited cells (0) and ESR1 KO cells (-100). Data points are from three independent experiments, points in bold represent the mean. d Structure of AZ’6421 and the (S)-prolinol epimer, 7. e Concentration-response curves for AZ’6421 and 7. ERα levels in MCF7 cells were assessed using an immunofluorescence endpoint after 24 h exposure to compound. […] Data points are from 5 (AZ'6421) or 2 (Cpd 7) independent experiments with technical duplicates performed for each experiment, bold points represent the mean. All concentration-response curves were plotted using nonlinear regression analysis in GraphPad Prism.
Fig. 6 Assessment of the cause of the in vitro/in vivo disconnect. a CTC174 tumours were disaggregated into single cells, seeded in 6-well plates and dosed with increasing concentrations of AZ’6421 for 24 hours before being lysed. ERα levels were assessed by immunoblotting. ERɑ levels normalised to vinculin and expressed as % DMSO control are shown underneath the immunoblot. b Representative IHC images taken from sections of tumour treated with vehicle control or 100 mg/kg AZ’6421 for 4 days. Sections were stained with an antibody against ERα (Sp1, Ventana). c Schematic of potential sites of metabolism d Free plasma exposure of AZ’6421 and its metabolite 8 following 100 mg/kg dosing of AZ’6421. e Concentration-response curves for AZ’6421 and metabolite 8. ERα levels in MCF7 cells were assessed using an immunofluorescence endpoint after 24 h exposure to compound. […] Points in bold represent the mean. f Effect of metabolite 8 on ERα degradation in CTC174 cells cultured ex vivo. […] MCF7 cells were pre-treated with 10 µM cpd 8 or DMSO control for 1 h before being exposed to DMSO, AZ’6421 or fulvestrant, at the concentrations indicated, for a further 24 h. A representative immunoblot from two biological replicates is shown. TEXT PRINTED IN THE PICTURE: (a) AZ'6421: ERα % of DMSO control: 20.3 (1 nM); ERα % of DMSO control: 12.0 (10 nM); ERα % of DMSO control: 4.1 (30 nM); ERα % of DMSO control: 4.2 (100 nM); ERα % of DMSO control: 3.9 (300 nM); ERα % of DMSO control: 3.6 (1000 nM)
Cells were seeded into 12-well tissue culture-treated plates at 0.5 x 10^6 cells/well in phenol red-free RPMI containing 5% (v/v) charcoal-stripped FBS (F6765, Sigma) and left to adhere overnight. In experiments to detect agonism or for SILAC experiments, FBS was double stripped using activated charcoal. Cells were treated with compound or 0.1% DMSO vehicle control for the times indicated prior to being lysed in Pierce RIPA buffer (Thermo Scientific), supplemented with protease and phosphatase inhibitors. Expression levels of proteins were determined by standard western blotting techniques (BioRad 4%-12% Bis-Tris gels). Antibodies were diluted in 5% milk-PBS-Tween and protein levels were detected using Pierce WestDura chemiluminescent reagents followed by visualisation and quantification on a Syngene ChemiGenius Imager. Where blots were quantified, protein levels were normalised to beta-actin or vinculin control and expressed as % of vehicle control.

[2] = Experimental PSA (ePSA), chromatographic method; format: physicochemical
ERα [3] = biological target: T1, ERα; experiment: Western blot analysis of ERα in MCF7 cells (dose response, MG132, VHL ligand and cpd 8 competition); format: cell-based; conditions: Figure 6f, read-out: ERa % of control

Row | Structure (SMILES) | effect of MG132 pre-treatment on ERα degradation (ERα [1]; 10 µM MG132 1 h, then compound 7 h, MCF7) | effect of excess acetylated-(S,R,S)-AHPC pre-treatment on ERα degradation (ERα [1]; 10 µM VHL ligand, MCF7) | effect of excess (10 µM) 8 on ERα degradation (ERα [1]; MCF7, 100 and 300 nM, 24 h) | ERα degradation (ERα [1]; MCF7, 100 and 300 nM, 24 h, western blot) | concentration giving maximal ERα degradation (ERα [1]; MCF7, 24 hours, western blot) [nM] | remaining activity at 1 µM (ERα [1]; MCF7, read-out: ERa % of control) [%] | EPSA [2] [A^2] | remaining activity at 0.001 µM (ERα [3]; 1 nM) [%] | remaining activity at 0.01 µM (ERα [3]; 10 nM) [%] | remaining activity at 0.03 µM (ERα [3]; 30 nM) [%] | remaining activity at 0.1 µM (ERα [3]; 100 nM) [%] | remaining activity at 0.3 µM (ERα [3]; 300 nM) [%] | remaining activity at 1 µM (ERα [3]; 1000 nM) [%]
1 | Cc1ncsc1-c1ccc(CNC(=O)[C@@H]2C[C@@H](O)CN2C(=O)[C@@H](NC(=O)COCCCOCCCOc2cc(F)c([C@@H]3c4[nH]c5ccccc5c4C[C@@H](C)N3CC(C)(C)F)c(F)c2)C(C)(C)C)cc1 [Compound 5] | attenuated ERα degradation | partially reduced ERα degradation | reduce this degradation to levels achieved in the presence of 8 alone | near-complete degradation of ERα | ≥ 10 | 0.87 | 98 |  |  |  |  |  | 
2 | C[C@@H]1Cc2c([nH]c3ccccc23)[C@@H](c2c(F)cc(OCCC(=O)O)cc2F)N1CC(C)(C)F [Compound 8] |  |  |  |  |  |  |  | 51.3 | 51.6 | 47.7 | 29.2 | 46.3 | 42
